Assay results as given in ChEMBL document CHEMBL1130083, “Discovery of prototype peptidomimetic agonists at the human melanocortin receptors MC1R and MC4R” (J Med Chem, 1997).
pEC50, pIC50: −log10 of the molar value.

Assays:
Melanocortin receptor 4 = Melanocortin receptor 4 (Homo sapiens, UniProt P32245); test: Displacement of [125I]NDP-MSH from Melanocortin 4 receptor at 10 uM
[1] = biological target: T1, Melanocyte-stimulating hormone receptor (Homo sapiens, UniProt Q01726); test: Displacement of [125I]NDP-MSH from Melanocortin 1 receptor at 10 uM
T1 sequence (Q01726 whole entry): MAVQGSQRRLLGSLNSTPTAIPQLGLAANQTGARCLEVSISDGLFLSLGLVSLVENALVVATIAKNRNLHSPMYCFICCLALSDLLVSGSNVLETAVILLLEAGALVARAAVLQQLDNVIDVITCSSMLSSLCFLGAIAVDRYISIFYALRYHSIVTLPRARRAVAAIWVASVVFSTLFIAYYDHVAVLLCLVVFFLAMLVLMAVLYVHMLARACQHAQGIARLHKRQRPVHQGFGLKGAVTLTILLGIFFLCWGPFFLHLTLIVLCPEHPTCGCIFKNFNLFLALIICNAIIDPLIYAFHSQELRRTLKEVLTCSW

MCR [2] = test: Effective concentration was measured against frog skin MCR cells at 10 e-4 10 e-12 M Concentration.; type: functional, cell-based; conditions: Anura
Melanocortin receptor 3 = Melanocortin receptor 3 (Homo sapiens, UniProt P41968); test: Displacement of [125I]NDP-MSH from Melanocortin 3 receptor at 10 uM
Chain of Melanocortin receptor 3 (P41968 whole entry): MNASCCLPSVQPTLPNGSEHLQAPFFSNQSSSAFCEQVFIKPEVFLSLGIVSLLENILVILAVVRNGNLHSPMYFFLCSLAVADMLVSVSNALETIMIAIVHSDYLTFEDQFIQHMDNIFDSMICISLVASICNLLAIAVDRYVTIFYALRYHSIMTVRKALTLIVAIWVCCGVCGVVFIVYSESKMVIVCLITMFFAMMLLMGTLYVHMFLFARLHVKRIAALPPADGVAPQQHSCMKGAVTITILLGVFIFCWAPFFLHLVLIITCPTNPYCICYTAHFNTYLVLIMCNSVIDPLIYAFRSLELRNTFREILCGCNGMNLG

Melanocortin receptor 5 = Melanocortin receptor 5 (Homo sapiens, UniProt P33032); test: Displacement of [125I]NDP-MSH from Melanocortin 5 receptor at 10 uM
Chain of Melanocortin receptor 5 (P33032 whole entry): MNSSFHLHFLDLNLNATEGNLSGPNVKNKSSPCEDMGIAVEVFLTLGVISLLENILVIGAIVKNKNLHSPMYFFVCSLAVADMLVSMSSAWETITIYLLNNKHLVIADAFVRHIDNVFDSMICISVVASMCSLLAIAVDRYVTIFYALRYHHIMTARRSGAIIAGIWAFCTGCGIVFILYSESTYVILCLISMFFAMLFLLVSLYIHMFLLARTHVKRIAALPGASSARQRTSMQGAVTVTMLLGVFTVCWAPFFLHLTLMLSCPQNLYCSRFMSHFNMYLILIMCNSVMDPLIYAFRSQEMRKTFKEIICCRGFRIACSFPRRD

[3] = biological target: T1, Melanocyte-stimulating hormone receptor; test: effective concentration of peptide at 50% maximal cAMP accumulation on Melanocortin 1 receptor; type: functional
MCR [4] = test: Effective concentration was measured against frog skin(MCR) cells at 10 e-4 10 e-12 M Concentration.; type: functional, cell-based; conditions: Anura

Chain of Melanocortin receptor 4 (P32245 whole entry): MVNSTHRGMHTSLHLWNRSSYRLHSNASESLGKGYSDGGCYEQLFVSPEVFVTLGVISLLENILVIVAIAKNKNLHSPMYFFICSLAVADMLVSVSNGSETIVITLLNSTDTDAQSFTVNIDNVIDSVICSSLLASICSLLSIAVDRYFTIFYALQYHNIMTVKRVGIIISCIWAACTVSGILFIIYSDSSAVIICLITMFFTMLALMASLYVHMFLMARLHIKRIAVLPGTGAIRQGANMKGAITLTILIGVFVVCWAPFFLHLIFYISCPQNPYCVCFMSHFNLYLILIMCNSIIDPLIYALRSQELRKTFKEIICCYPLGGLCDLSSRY

Structure (SMILES) | pIC50 (Melanocortin receptor 4) | pIC50 [1] | pEC50 (MCR [2]) | pIC50 (Melanocortin receptor 3) | pIC50 (Melanocortin receptor 5) | pEC50 [3] | pEC50 (MCR [4])
CC(=O)N[C@@H](Cc1ccccc1)C(=O)N[C@H](CCCN=C(N)N)C(=O)N[C@H](Cc1c[nH]c2ccccc12)C(N)=O | < 5.00 | < 5.00 | < 4.00 | < 5.00 | < 5.00 |  | 
CC(=O)N[C@H](Cc1ccccc1)C(=O)N[C@H](CCCNC(=N)N)C(=O)N[C@H](Cc1c[nH]c2ccccc12)C(N)=O | < 5.00 | < 5.00 | < 4.00 | < 5.00 | < 5.00 |  | 
CC(=O)N[C@@H](Cc1c[nH]cn1)C(=O)N[C@@H](Cc1ccccc1)C(=O)N[C@@H](CCCN=C(N)N)C(=O)N[C@H](Cc1c[nH]c2ccccc12)C(N)=O |  | 5.20 | 5.70 | < 5.00 | < 5.00 | 5.85 | 
CC(=O)N[C@@H](Cc1ccccc1)C(=O)N[C@@H](CCCNC(=N)N)C(=O)N[C@H](Cc1c[nH]c2ccccc12)C(N)=O | < 5.00 | < 5.00 | < 4.00 | < 5.00 | < 5.00 |  | 
CC(=O)N[C@@H](Cc1cnc[nH]1)C(=O)N[C@H](Cc1ccccc1)C(=O)N[C@@H](CCCNC(=N)N)C(=O)N[C@@H](Cc1c[nH]c2ccccc12)C(N)=O |  | 6.21 | 6.70 | < 5.00 | < 5.00 | 6.64 | 
CC(=O)N[C@H](Cc1ccccc1)C(=O)N[C@@H](CCCN=C(N)N)C(=O)N[C@@H](Cc1c[nH]c2ccccc12)C(N)=O | 5.68 | < 5.00 |  | < 5.00 | < 5.00 |  | 4.52
CC(=O)N[C@H](Cc1ccccc1)C(=O)N[C@@H](CCCNC(=N)N)C(=O)N[C@H](Cc1c[nH]c2ccccc12)C(N)=O | 5.04 | < 5.00 |  | < 5.00 | < 5.00 |  | 5.82

Results, then the compound that gave them:

pIC50 (Melanocortin receptor 4) | pIC50 [1] | pEC50 (MCR [2]) | pIC50 (Melanocortin receptor 3) | pIC50 (Melanocortin receptor 5) | pEC50 [3] | pEC50 (MCR [4]) | Structure (SMILES)
< 5.00 | < 5.00 | 5.26 | < 5.00 | < 5.00 |  |  | CC(=O)N[C@H](Cc1ccccc1)C(=O)N[C@H](CCCN=C(N)N)C(=O)N[C@@H](Cc1c[nH]c2ccccc12)C(N)=O
 | < 5.00 | 5.00 | < 5.00 | < 5.00 |  |  | CC(=O)N[C@@H](Cc1c[nH]cn1)C(=O)N[C@H](Cc1ccccc1)C(=O)N[C@H](CCCN=C(N)N)C(=O)N[C@@H](Cc1c[nH]c2ccccc12)C(N)=O
< 5.00 | < 5.00 | 5.38 | < 5.00 | < 5.00 |  |  | CC(=O)NCC(=O)N[C@H](Cc1ccccc1)C(=O)N[C@@H](CCCN=C(N)N)C(=O)N[C@H](Cc1c[nH]c2ccccc12)C(N)=O
 | < 5.00 | 5.72 | < 5.00 | < 5.00 |  |  | CC(=O)N[C@@H](Cc1c[nH]cn1)C(=O)N[C@H](Cc1ccccc1)C(=O)N[C@H](CCCN=C(N)N)C(=O)N[C@H](Cc1c[nH]c2ccccc12)C(N)=O
